Earlier results on five compounds are cited in patent US20040128703A1, “Methods and compositions for the generation of humanized mice” (priority 2002, published 2004).

The subject of data set [1] is gram-negative bacilli.
Data set [2] concerns P-glycoprotein.
In data set [3] the target is T1, human PXR (Homo sapiens, UniProt O75469).
T1 sequence (O75469 1-434): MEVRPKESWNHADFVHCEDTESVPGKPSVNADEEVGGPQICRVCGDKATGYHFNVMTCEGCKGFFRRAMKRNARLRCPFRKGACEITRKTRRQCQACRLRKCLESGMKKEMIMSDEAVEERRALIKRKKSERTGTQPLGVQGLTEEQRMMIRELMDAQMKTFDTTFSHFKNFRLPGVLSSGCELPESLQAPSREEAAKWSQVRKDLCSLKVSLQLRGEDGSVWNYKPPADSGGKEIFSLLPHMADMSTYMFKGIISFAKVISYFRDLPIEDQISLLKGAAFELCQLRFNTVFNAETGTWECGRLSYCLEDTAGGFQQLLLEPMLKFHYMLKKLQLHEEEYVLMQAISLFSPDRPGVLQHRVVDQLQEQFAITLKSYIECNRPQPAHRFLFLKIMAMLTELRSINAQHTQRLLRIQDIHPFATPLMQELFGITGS
Conditions: transgenic mice, native PXR partially deleted, human PXR gene targeted to the liver.

The subject of data set [4] is CYP3A4 expression.
The test system of data set [5] is CYP3A expression in rat hepatocytes.
The target of data set [6] is T1, human PXR. As to conditions: human PXR transfected into rat hepatocytes.

Read-outs that look alike come from different tables or passages of the source.

As to `O=C(O)c1cn(C2CC2)c2cc(N3CCNCC3)c(F)cc2c1=O` [Ciprofloxacin], the susceptibility of bacteria was 86% in data set [1] (1994, US) and 76% in data set [1] (2000, US).
Take `CCOP(=O)(OCC)C(=Cc1cc(C(C)(C)C)c(O)c(C(C)(C)C)c1)P(=O)(OCC)OCC` [SR12813]: the P-glycoprotein induction entry in data set [2] is “induced”.
As for `CC(=O)O[C@H]1C(=O)[C@@]2(C)[C@H]([C@H](OC(=O)c3ccccc3)[C@]3(O)C[C@H](OC(=O)[C@H](O)[C@@H](NC(=O)c4ccccc4)c4ccccc4)C(C)=C1C3(C)C)[C@]1(OC(C)=O)CO[C@@H]1C[C@@H]2O` [Taxol], the P-glycoprotein induction entry in data set [2] is given as “induced”.
As to `Clc1ccccc1C(c1ccccc1)(c1ccccc1)n1ccnc1` [clotrimazole], the “CYP3A expression in the mouse” value in data set [3] was “induced CYP3A expression”. Further, the “CYP3A4 expression in human liver” value in data set [4] is “stimulate CYP3A4 expression”. For the same compound, the “effect on CYP3A expression in rat hepatocytes” value in data set [5] was “no effect”. Besides, in data set [6], the “CYP3A expression in rat hepatocytes transfected with human PXR” value was “able to stimulate CYP3A expression”.
On to `CCC1(c2ccccc2)C(=O)NC(=O)NC1=O` [phenobarbital], for which, in data set [4], the “CYP3A4 expression in human liver” value is given as “stimulate CYP3A4 expression”. In addition, the “effect on CYP3A expression in rat hepatocytes” value in data set [5] is “no effect”. Also, the “CYP3A expression in rat hepatocytes transfected with human PXR” value in data set [6] is “able to stimulate CYP3A expression”.
